Laboratory results as given in PMC8179002, “Inhibitors of thiol-mediated uptake” (Chemical Science, 2020).
Like-named read-outs stand apart in the source and are kept apart here. Bridge positions count the residues as written; N and C are the ends. Peptide text beside a SMILES is read from it.

Assay: Relative cell viability in HCHT screening (propidium iodide negative nuclei count)
Format: cell-based
Conditions: human, HeLa, read-out: GI50, concentration causing 50% cell growth inhibition
Description: With COCs 1 and 2 as cell-penetrating reporters, a fully automated, fluorescent microscopy image-based high-content high-throughput (HCHT)[19] inhibitor screening assay was developed. HeLa cells in multiwell plates are incubated with a reporter at constant and inhibitors at varying concentrations and incubation times. Hindered reporter uptake then causes decrease of fluorescence inside of cells (Fig. 3a). Automated data analysis[19] was established to extract average fluorescence intensity per cell and, at the same time, cell viability from propidium iodide negative nuclei count (Fig. 3 and S3–S6 ^†). Standard assay conditions consisted of pre-incubation of HeLa cells with inhibitors for different periods of time, followed by the removal of inhibitors and the addition of reporters, thus excluding possible interactions between the two in the extracellular environment. In alternative co-incubation conditions, inhibitors were not removed before the addition of reporters to allow for eventual interactions between the two.
To be able to extract the fluorescent integrated intensity information (sum of the intensities of all the pixels included in the mask) from the green channel for live cell only, the image analysis pipeline contains several steps of cell filtering and selection:
1) Firstly, PI is used to stain any remaining nuclei of dead cell. In the analysis pipeline, all the “dead” nuclei are detected based on their fluorescent intensity in the PI channel (Figure […]
Fig. S4 (A) PI positive nuclei mask (fluorescent intensity threshold of 1000). (B) Overlap image of dead nuclei mask and original all cell body mask. (C) Resulting cell mask after removing any cell marked by a dead nucleus, new mask is called “Live Cell”. Scale bar: 50 μm.
2) Elimination of non-full cells from the border of the image is performed, to avoid inaccurate fluorescent integrated intensity quantification (fluorescent integrated intensity = sum of intensity of all the pixel of the object) (Figure S5).
(1 picture or pasted object on this page, not shown here)
4.3. HCHT Inhibitor Screening with ETP as Reporter […]
(§1) Relative cell viability (RV) for each condition in the presence of inhibitors were calculated using the count value of living cells by dividing the count value of living cells with addition of reporter 1, Hoechst 33342 and PI, for each set of experiments. Duplicates were performed for each condition. The resulting dependence of the relative cell viability (RVrel) to the concentration of inhibitors (cinhibitor) was plotted and fitted with Equation (S2) to retrieve the concentration causing 50% cell growth inhibition (GI50) value and the Hill coefficient (n).
RVrel = 1 / (1 + (GI50 / cinhibitor)n) (S2)
Note: Reporter 1 were not toxic for 1 h at 10 μM.S2 Also in this study, the count value of living cells with addition of reporter 1, Hoechst 33342 and PI is always similar to that of living cells with only addition of Hoechst 33342 and PI.
as §1, with “with” for “in the presence of”, “2,” for “1,”
Note: Reporter 2 were not toxic for 24 h at 10 μM.S3 Also in this study, the count value of living cells with addition of reporter 2, Hoechst 33342 and PI is always similar to that of living cells with only addition of Hoechst 33342 and PI.
4.4.1. Screening with Disulfides as Inhibitors
4.4.1.1. Screening with ETP as Inhibitors
Fig. S35 Automatically analyzed HCHT data showing fluorescence intensity (filled symbols) and relative viability (empty symbols) of HeLa cells after pre-incubation with 3 for 1 h (blue […]

[1] = tpre 0.5 h, then tco 0.5 h co-incubation of inhibitor and 1 (10 µM)
[2] = tpre 0.5 h, then tco 0.5 h co-incubation of inhibitor and 2 (10 µM)
[3] = tpre 0.5 h with inhibitor, removal, tinc 0.5 h with 1 (10 µM)
[4] = tpre 1 h with inhibitor, removal, tinc 0.5 h with 1 (10 µM)
[5] = tpre 1 h with inhibitor, removal, tinc 0.5 h with 2 (10 µM)
[6] = tpre 2 h with inhibitor, removal, tinc 0.5 h with 1 (10 µM)
[7] = tpre 4 h with inhibitor, removal, tinc 0.5 h with 1 (10 µM)
[8] = tpre 5.5 h with FBS, then tco 0.5 h co-incubation of inhibitor and 1 (10 µM)
[9] = tpre 6 h with FBS, removal, tinc 0.5 h with 2 (10 µM)
[10] = tpre 23.5 h with FBS, then tco 0.5 h co-incubation of inhibitor and 1 (10 µM)
[11] = tpre 4 h with inhibitor, removal, tinc 0.5 h with 2 (10 µM)
[12] = tpre 23.5 h with FBS, then tco 0.5 h co-incubation of inhibitor and 2 (10 µM)
[13] = HeLa Kyoto cells, tpre 0.5 h, then tco 0.5 h co-incubation of inhibitor and 2 (10 µM)
[14] = HeLa Kyoto cells, tpre 0.5 h with inhibitor, removal, tinc 0.5 h with 1 (10 µM)
[15] = HeLa Kyoto cells, tpre 1 h with inhibitor, removal, tinc 0.5 h with 1 (10 µM)
[16] = HeLa Kyoto cells, tpre 1 h with inhibitor, removal, tinc 0.5 h with 2 (10 µM)
[17] = HeLa Kyoto cells, tpre 1.5 h, then tco 0.5 h co-incubation of inhibitor and 2 (10 µM)
[18] = HeLa Kyoto cells, tpre 2 h with inhibitor, removal, tinc 0.5 h with 1 (10 µM)
[19] = HeLa Kyoto cells, tpre 2 h with inhibitor, removal, tinc 0.5 h with 2 (10 µM)
[20] = HeLa Kyoto cells, tpre 4 h with inhibitor, removal, tinc 0.5 h with 2 (10 µM)

Compound	GI50 [1] [µM]	GI50 [2] [µM]	GI50 [3] [µM]	GI50 [4] [µM]	GI50 [6] [µM]	GI50 [7] [µM]	GI50 [8] [µM]	GI50 [9] [µM]	GI50 [10] [µM]	GI50 [11] [µM]	also measured
CCN1C(=O)C2SSSSC1C(=O)N2CC(=O)O (stereo not shown) [compound 3]	13.3 ± 0.8	~20	34 ± 2.9	35 ± 4.4	46.1 ± 4.8	> 50	> 50	> 100	> 50	–	GI50 [5]: > 20 µM
CCN1C(=O)C2SSC1C(=O)N2CC(=O)O (stereo not shown) [compound 4]	~8.4	~20	> 100	12.5 ± 0.7	~9.2	6.4 ± 0.3	> 20	–	> 20	~4	GI50 [5]: > 20 µM
O=C(O)CNC(=O)c1ccc2c(c1)SSSSS2 [compound 6]	> 20	> 20	> 100	~98	~45	~44	> 20	~105	> 20	~17	–
O=C(CN1C(=O)C2SSC1C(=O)N2CCOc1ccccc1)NCC(=O)OC[C@H]1OC(O)[C@H](O)[C@@H](O)[C@@H]1O (stereo partly shown) [compound 7]	–	–	> 100	> 100	> 100	–	> 100	> 200	> 100	> 100	GI50 [12]: > 100 µM
O=C(O)CC[C@H](NC(=O)CN1C(=O)C2SSC1C(=O)N2CCOc1ccccc1)C(=O)O (stereo partly shown) [compound 9]	–	–	> 100	> 100	> 100	–	–	> 200	–	> 100	–
O=C(O)CC[C@H](NC(=O)CCCCC1CCSS1(=O)=O)C(=O)O (stereo partly shown) [compound 15]	–	–	> 500	> 500	> 500	–	> 1000	–	944 ± 60	> 500	GI50 [12]: > 500 µM
O=S1(=O)C[C@H](O)[C@H](O)CS1 [compound 16]	–	–	–	1300 ± 490	–	–	> 1000	–	490 ± 60	> 500	–
[O-][S+]1CC(O)C(O)CS1 (stereo not shown) [compound 17]	> 500	–	–	–	–	–	> 1000	–	450 ± 50	–	–
N[C@H]1CSSC[C@@H](C(=O)NCC(=O)O)NC(=O)[C@H](CCC(=O)O)NC1=O [compound 18] (H-CECG-OH; disulfide 1-3)	–	–	–	–	–	–	–	–	–	–	GI50 at 1 h (HeLa Kyoto cells, tpre 0.5 h, then tco 0.5 h co-incubation of inhibitor and 1 (10 µM)): > 500 µM; GI50 at 1 h [13]: > 500 µM; GI50 at 0.5 h [14]: > 2000 µM; GI50 at 1 h [15]: > 2000 µM; GI50 at 1 h [16]: > 1000 µM; GI50 at 2 h [17]: > 500 µM; GI50 at 2 h [18]: > 2000 µM; GI50 at 2 h [19]: > 1000 µM; GI50 at 4 h [20]: > 1000 µM; GI50 at 6 h (HeLa Kyoto cells, tpre 5.5 h with FBS, then tco 0.5 h co-incubation of inhibitor and 1 (10 µM)): > 1000 µM; GI50 at 24 h (HeLa Kyoto cells, tpre 23.5 h with FBS, then tco 0.5 h co-incubation of inhibitor and 1 (10 µM)): > 1000 µM
N[C@H]1CSSC[C@@H](C(=O)N[C@@H](CCC(=O)O)C(=O)O)NC(=O)CNC1=O [compound 19] (H-CGCE-OH; disulfide 1-3)	–	–	–	–	–	–	–	–	–	–	GI50 at 1 h [13]: > 500 µM; GI50 at 0.5 h [14]: > 2000 µM; GI50 at 1 h [15]: > 2000 µM; GI50 at 1 h [16]: > 1000 µM; GI50 at 2 h [17]: > 500 µM; GI50 at 2 h [18]: > 2000 µM; GI50 at 2 h [19]: > 1000 µM; GI50 at 4 h [20]: > 1000 µM
